Assay results taken from patent US20090054403A1, “Treatment of Post-Traumatic Stress Disorder” (priority 2007, published 2009).
“And” between values parts separate entries of the source, which are not always exact repeats. Equal values may be shown once. Read-outs that look alike come from different tables or passages of the source.

Experiments:
[1] = biological target: T1, bovine dopamine-β-hydroxylase (Bos taurus, UniProt P15101); assay: Bovine DBH activity, conversion of tyramine to octopamine (HPLC); format: biochemical; conditions: for IC50: 0.1 mM tyramine, 4 mM ascorbate, pH 5.2
T1 construct: Bovine DBH from adrenal glands was obtained from Sigma Chemicals; purchased Sigma Chemicals (St Louis, Mo.); host or cells: bovine adrenal glands
T1 sequence (P15101 1-610): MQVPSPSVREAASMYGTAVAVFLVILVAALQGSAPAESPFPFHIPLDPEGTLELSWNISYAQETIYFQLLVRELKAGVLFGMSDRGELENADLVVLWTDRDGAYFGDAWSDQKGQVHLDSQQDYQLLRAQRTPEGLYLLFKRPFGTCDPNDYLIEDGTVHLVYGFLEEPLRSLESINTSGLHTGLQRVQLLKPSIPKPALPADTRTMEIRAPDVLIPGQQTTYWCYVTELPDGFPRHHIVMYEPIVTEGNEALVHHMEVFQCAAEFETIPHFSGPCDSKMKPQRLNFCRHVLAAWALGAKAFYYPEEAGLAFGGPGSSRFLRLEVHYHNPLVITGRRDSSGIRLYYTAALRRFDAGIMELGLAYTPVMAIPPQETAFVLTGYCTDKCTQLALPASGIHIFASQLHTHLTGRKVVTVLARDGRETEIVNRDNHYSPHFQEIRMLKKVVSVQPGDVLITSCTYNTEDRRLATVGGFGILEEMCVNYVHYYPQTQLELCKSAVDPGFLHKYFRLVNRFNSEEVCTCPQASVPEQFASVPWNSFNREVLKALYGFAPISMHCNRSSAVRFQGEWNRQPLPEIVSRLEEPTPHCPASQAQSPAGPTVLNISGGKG
Description: (§1) Bovine and human dopamine-β-hydroxylase activity was assayed by measuring the conversion of tyramine to octopamine. Bovine adrenal dopamine-β-hydroxylase was obtained from Sigma Chemicals (St Louis, Mo., USA) whereas human dopamine-β-hydroxylase was purified from the culture medium of the neuroblastoma cell line SK-N-SH. The assay was performed at pH 5.2 and 32° C. in a medium containing 0.125 M NaAc, 10 mM fumarate, 0.5-2 μM CuSO4, 0.1 mg.ml^−1 catalase, 0.1 mM tyramine and 4 mM ascorbate. In a typical assay, 0.5-1 milliunits of enzyme were added to the reaction mixture and, subsequently, a substrate mixture containing catalase, tyramine and ascorbate was added to initiate the reaction (final volume of 200 μl). Samples were incubated with or without the appropriate concentration of nepicastat (S-enantiomer) or (R)-5-Aminomethyl-1-(5,7-difluoro-1,2,3,4-tetrahydronaphth-2-yl)-2,3-dihydro-2-thioxo-1H-imidazole hydrochloride (R-enantiomer) at 37° C. for 30-40 minutes. The reaction was quenched by the stop solution containing 25 mM EDTA and 240 μM 3-hydroxytyramine (internal standard). The samples were analysed for octopamine by reverse phase high pressure liquid chromatography (HPLC) using ultraviolet-detection at […]. The HPLC chromatography run was carried out at the flow rate of 1 ml.min^−1 using a LiChroCART 125-4 RP-18 column and isocratic elution with 10 mM acidic acid, 10 mM 1-heptane sulfonic acid, 12 mM tetrabutyl ammonium phosphate and 10% methanol. The remaining percent activity was calculated based on controls, corrected using internal standards and fitted to a non-linear four-parameter concentration-response curve.
(§2) In vitro assay of DBH activity. DBH activity was assayed by measuring the conversion of tyramine to octopamine. Bovine DBH from adrenal glands was obtained from Sigma Chemical Co (St Louis, Mo.). Human secretory DBH was purified from the culture medium of the neuroblastoma cell line SK-N-SH. The assay was performed at pH 5.2 and 32° C. in 0.125 M NaOAc, 10 mM fumarate, 0.5-2 μM CUSO4, 0.1 mg/mL catalase, 0.1 mM tyramine and 4 mM ascorbate. In a typical assay, 0.5-1 milliunits of enzyme were added to the reaction mixture and then a substrate mixture containing catalase, tyramine and ascorbate was added to initiate the reaction (final volume of 200 μL). Samples were incubated with or without the appropriate concentration of the inhibitor at 37° C. for 30-40 min. The reaction was quenched by the stop solution containing 25 mM EDTA and 240 μM 3-hydroxytyramine (internal standard). The samples were analysed for octopamine by reverse phase HPLC using UV detection at […]. The remaining percent activity was calculated based on controls (without inhibitor), corrected using internal standards and fitted to a non-linear 4-parameter concentration-response curve to obtain IC50 values.
(§3) Bovine DBH from adrenal glands was obtained from Sigma Chemicals (St. Louis, Mo.). Human secretory DBH was purified from the culture medium of the neuroblastoma cell line SK-N-SH and was used to obtain the inhibition data. A lentil lectin-sepharose column containing 25 ml gel was prepared and equilibrated with 50 mM KH2PO4, pH 6.5, 0.5 M NaCl. The column was eluted with 35 ml of 10% methyl α, D-mannopyranoside in 50 mM KH2PO4, pH 6.5, 0.5 M NaCl at 0.5 ml/min. Fraction containing most enzymatic activities were pooled and concentrated with an Amicon stirred cell using a YM30 membrane. […]

[2] = biological target: T2, human dopamine-β-hydroxylase (Homo sapiens, UniProt P09172); assay: Human DBH activity, conversion of tyramine to octopamine (HPLC); format: biochemical; conditions: for IC50: 0.1 mM tyramine, 4 mM ascorbate, pH 5.2
T2 construct: Human secretory DBH was purified from the culture medium of the neuroblastoma cell line SK-N-SH; endogenous in cells; host or cells: SK-N-SH neuroblastoma cells; secreted enzyme purified in house from the culture medium on lentil lectin-sepharose
T2 sequence (P09172 40-617 limits assumed): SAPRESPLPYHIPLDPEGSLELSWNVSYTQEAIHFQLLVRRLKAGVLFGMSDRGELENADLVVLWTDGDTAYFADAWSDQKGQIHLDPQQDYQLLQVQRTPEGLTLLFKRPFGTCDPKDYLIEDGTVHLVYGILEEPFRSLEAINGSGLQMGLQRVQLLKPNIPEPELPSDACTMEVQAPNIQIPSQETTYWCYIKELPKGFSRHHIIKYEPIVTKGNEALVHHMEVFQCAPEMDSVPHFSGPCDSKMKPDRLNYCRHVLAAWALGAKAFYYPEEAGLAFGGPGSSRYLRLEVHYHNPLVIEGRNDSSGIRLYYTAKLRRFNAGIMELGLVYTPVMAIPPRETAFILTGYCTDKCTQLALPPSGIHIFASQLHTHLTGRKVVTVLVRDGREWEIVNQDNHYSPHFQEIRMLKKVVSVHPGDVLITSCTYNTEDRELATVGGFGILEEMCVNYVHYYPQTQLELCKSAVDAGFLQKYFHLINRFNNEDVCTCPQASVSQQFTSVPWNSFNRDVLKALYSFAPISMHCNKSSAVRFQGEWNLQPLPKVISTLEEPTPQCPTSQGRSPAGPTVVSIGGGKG
Description: as §1, §2
as §3, with “membrane. Methyl α, D-mannopyranoside was removed by buffer exchange with in 50 mM KH2PO4, pH 6.5, 0.1 M NaCl. The concentrated enzyme solution was aliquoted and stored at −25° C. An HPLC assay was used to measure DBH activity using tyramine and ascorbate as substrates.” for “membrane.”

[3] = bovine and human DBH taken together

**Q.** Which IC50 [1] does the source give for `Cl.NCc1c[nH]c(=S)n1[C@@H]1CCc2c(F)cc(F)cc2C1` [R-enantiomer, (R)-5-Aminomethyl-1-(5,7-difluoro-1,2,3,4-tetrahydronaphth-2-yl)-2,3-dihydro-2-thioxo-1H-imidazole hydrochloride] here?
**A.** Its IC50 is 25.1 ± 0.6 nM.

**Q.** What about the IC50 [2] of the same compound?
**A.** Its IC50 is 18.3 nM and 18 nM.

**Q.** How did the IC50 [1] turn out when `Fc1cc(F)cc(Cn2cc[nH]c2=S)c1` [SKF 102698, reference compound] was run?
**A.** Its IC50 is 67 ± 4.2 nM.

**Q.** And the IC50 [2]?
**A.** The IC50 was 85 ± 3.7 nM.

**Q.** Which “potency relative to SKF 102698” value [1] does the source give for `Cl.NCc1c[nH]c(=S)n1[C@H]1CCc2c(F)cc(F)cc2C1` [nepicastat, (S)-5-Aminomethyl-1-(5,7-difluoro-1,2,3,4-tetrahydronaphth-2-yl)-2,3-dihydro-2-thioxo-1H-imidazole hydrochloride] here?
**A.** The value was 8 fold.

**Q.** What about the “potency relative to the R enantiomer” value [1] of the same compound?
**A.** Its value is 3 fold.

**Q.** And the IC50 [1]?
**A.** Its IC50 is 8.5 ± 0.8 nM.

**Q.** What about the “potency relative to SKF 102698” value [2] of the same compound?
**A.** The value was 9 fold.

**Q.** What about the “potency relative to the R enantiomer” value [2] of the same compound?
**A.** The value was 2 fold.

**Q.** What about the IC50 [2] of the same compound?
**A.** Its IC50 is 9 nM.

**Q.** What about the “potency relative to SKF 102698” value [2, 3] of the same compound?
**A.** Its value is 8-9 fold.

**Q.** And the “potency relative to the R enantiomer” value [2, 3]?
**A.** Its value is 2-3 fold.

**Q.** What about the “selectivity for dopamine-β-hydroxylase” value ([2]; vs the other enzymes studied) of the same compound?
**A.** Its value is > 1000 fold.
